Assay [1] relates to CD44. Briefly: CD44 levels in MM.1S subcutaneous xenograft mice (IHC, serum ELISA). Conditions: 25 mg/kg, 2 injections. In kind it is in vivo. How it is done:
(§1) To investigate if AR-42 treatment could affect CD44 expression in vivo, a xenograft MM mouse model was created by injecting 1×10^7 viable cells of MM.1S cell line subcutaneously into the right flank of 12 NOD-SCID mice. […] One group of mice (n=4) received intra-peritoneal injections of 25 mg/kg AR-42, while the second group (n=4) was injected with vehicle control (8% DMSO in PBS; Ctrl). Injections were administered once a day (on Monday and Wednesday). Because the anti-tumor activity of AR-42 has been previously reported in preclinical mouse studies, mice were sacrificed 2 days after the second injection in order to avoid tumor size reduction. […] Tumors were excised and used for CD44 immunohistochemical (IHC) studies, while the serum was collected for ELISA assays. […] Thus, AR-42 down-regulates CD44 directly in vivo.
Blood from xenografted mice (0.6 ml/kg) was collected by retro-orbital bleeding and serum was obtained by centrifuging it at 1500×g for 10 min. […] Finally, 100 […] of Stop Reagent was added and absorbance was read on a spectrophotometer at 450 nm. Soluble CD44 (sCD44) content was calculated based on the readings from the standard and sample dilution factor.
Animal experiments were performed according to OSU institutional guidelines. […] The tumor size was measured once a week using a caliper, and the volume was calculated in cubed millimeters (mm3), using the formula L×W2/2. […]

The next assay has as its system MM.1S cell line. Briefly: Tumor size in MM.1S subcutaneous xenograft mice. In kind it is in vivo. Conditions: 25 mg/kg, 2 injections, at sacrifice. How it is done: as §1
Animal experiments were performed according to OSU institutional guidelines. To generate MM xenograft model, 1×10^7 viable MM.1S cells were injected subcutaneously into the right flank of 12 […]. The tumor size was measured once a week using a caliper, and the volume was calculated in cubed millimeters (mm3), using the formula L×W2/2. […] Mice were treated with […] injection of AR-42 (25 mg/kg) or DMSO (8% in PBS) once a day on Monday and Wednesday.

Assay [2] deals with CD44. Briefly: CD44 cell surface expression by flow cytometry in MM cell lines. In kind it is cell-based, human. As to the method: The down-regulation of CD44 cell surface expression was also observed by flow cytometry in all MM cell lines tested expressing detectable CD44 levels (FIG. 1D, FIGS. 2E-2F and data not shown).
(§2) CD44 surface expression was analyzed by staining cells with CD44-FITC antibody (BD Biosciences) for 30 min. in the dark, at room temperature. Apoptosis was measured by Annexin V-FITC and Propidium Iodide (PI) (Clontech) staining for 15 min. in the dark, at room temperature and data immediately acquired on a Beckman Coulter FC500 (Beckman Coulter) machine. Analysis was conducted using the FlowJo Software vX.0.7 (Tree Star Inc.). For the multiparametric analysis, the bone marrow samples were stained with CD38-PE (347687; BD Bioscience), CD138-APC (347193; BD Bioscience), CD45-ECD (A07784; Beckman Coulter), CD44-FITC (BD Bioscience) and AnnexinV-FITC (Clontech) for 30 minutes, washed with PBS and immediately analyzed with Gallios cytometer (Beckman Coulter).

Assay [3] relates to CD44. Briefly: nCounter GX Human Immunology gene expression in MM.1S cells. The note with it: 0.1 μM, 24-hr, p<0.001. In kind it is cell-based. How it is done: (§3) Growth inhibitory and pro-apoptotic properties of AR-42 as a single agent treatment agent have been reported previously in numerous malignancies, including MM. Because of the potent immunomodulatory effects observed with classical pan-HDACi's, immunology-related gene networks altered upon AR-42 treatment in MM cells were investigated using nCounter technology to analyze the effects of AR-42 on the expression of 511 human genes in MM.1S cells following 24-hr treatment with 0.1 μM AR-42.
Total RNA was prepared using TRIzol (Invitrogen). The RNA was analyzed by nCounter GX Human Immunology Kit, or nCounter Human microRNA Kit, as recommended by the manufacturer (NanoString Technologies, Inc.). A total of 511 immunology related genes and 800 microRNAs were profiled.
Samples analyzed by NanoString assay were normalized using the variance stabilization. The mean linkage hierarchical clustering algorithm was conducted to identify subgroups of significant miRNAs. […] The obtained data were deposited in the GEO database (accession number).

The next assay concerns CD44 promoter region. Briefly: CD44 promoter luciferase reporter assay. The class given is cell-based, human. The note with it: 0.2 μM, 24 hour; MM.1S, U266 and 293T. As to the method:
To address the molecular mechanism(s) responsible for downregulation of CD44 gene, the potential role of one or more cis regulatory regions was considered. […] The CD44 3′UTR element was subcloned downstream from the SV40 promoter-driven luciferase gene and transiently transfected the resulting reporter plasmid into MM.1S cells. Incubation of these cells with 0.2 μM AR-42 for 24 hours decreased luciferase activity detecting the activity of the CD44 3′UTR element by 35% as compared to untreated cells (FIG. 5A).
Human CD44 promoter-luciferase reporter gene (CD44P pGL3) was obtained from Addgene (Plasmid 19122). The 3′UTR of CD44 was PCR amplified using following primers:
Hela and 293T cells were transfected with 500 ng of 3′UTR-pGL3-control plasmid and 50 ng of Renilla luciferase expression construct (pRL-TK; Promega), using Lipofectamine 2000 (Invitrogen). After 24 hrs cells were lysed and tested by Dual Luciferase Assay (Promega), according to the manufacturer's instructions. MM.1S cells were transfected with 1.8 μg of pGL3-based luciferase vector and 200 ng of pRL-TK, harvested 24 hrs later and assayed as above.

Assay [4] relates to MM cell lines (MM.1S, U266, RPMI-8226, MM.1R). Briefly: Annexin V-PI apoptosis, single-agent AR-42 in MM cell lines. In kind it is cell-based, human. Conditions: 0.1 μM, 24-hr; all MM cell lines tested. How it is done: as §3, §2

This note sets out measurements from US10022342B2, “Methods and compositions for treating multiple myeloma” (Ohio State Innovation Foundation, priority 2015, dated 2018).

Regarding `CC(C)[C@H](C(=O)Nc1ccc(C(=O)NO)cc1)c1ccccc1` [AR-42, (S)-N-hydroxy-4-(3-methyl-2-phenylbutanamido)benzamide], the “soluble CD44 in serum (ELISA)” value with CD44 [1] was “decreased levels”. Further, the “CD44 staining of tumor sections (IHC)” value with CD44 [1] (vs control group) is given as “significant lower CD44 staining”. In addition, the “tumor size vs vehicle group” value in the assay on MM.1S cell line was “still comparable”. For the same compound, the “CD44 cell surface expression” value in the assay on CD44 [2] (all MM cell lines tested expressing detectable CD44) is on record as “down-regulation”. Also, the “CD44 downregulation compared to other HDACi's” value in the assay with CD44 [2] (at comparable IC50 concentrations, vs SAHA, LBH589, JQ12) was “greater CD44 downregulation”. For the same compound, the “CD44 gene expression (nCounter)” value in the assay with CD44 [3] was “most significantly downregulated”. For the same compound, the “activity of CD44 promoter region (luciferase)” value in the assay with CD44 promoter region was “did not lower”. Further, the “apoptosis by Annexin V-PI staining” value in assay [4] is “without significant increase of apoptosis”.
